We go through 28 molecules from US9212182B2, “Bicyclic sulfonamide compounds as sodium channel inhibitors” (AMGEN INC., priority 2013, dated 2015).

For the assay, the target named is Nav 1.7 (Homo sapiens (Human), UniProt Q15858). As to the kind of experiment: in-vitro Nav 1.7 PX (IC50). Type of assay: cell-based.

The structures appear in SMILES notation. Where two headings read alike, the source gives them in different places. Where only a bound is given, the exact number is not on record here.

Chain of Nav 1.7 (Q15858 whole entry): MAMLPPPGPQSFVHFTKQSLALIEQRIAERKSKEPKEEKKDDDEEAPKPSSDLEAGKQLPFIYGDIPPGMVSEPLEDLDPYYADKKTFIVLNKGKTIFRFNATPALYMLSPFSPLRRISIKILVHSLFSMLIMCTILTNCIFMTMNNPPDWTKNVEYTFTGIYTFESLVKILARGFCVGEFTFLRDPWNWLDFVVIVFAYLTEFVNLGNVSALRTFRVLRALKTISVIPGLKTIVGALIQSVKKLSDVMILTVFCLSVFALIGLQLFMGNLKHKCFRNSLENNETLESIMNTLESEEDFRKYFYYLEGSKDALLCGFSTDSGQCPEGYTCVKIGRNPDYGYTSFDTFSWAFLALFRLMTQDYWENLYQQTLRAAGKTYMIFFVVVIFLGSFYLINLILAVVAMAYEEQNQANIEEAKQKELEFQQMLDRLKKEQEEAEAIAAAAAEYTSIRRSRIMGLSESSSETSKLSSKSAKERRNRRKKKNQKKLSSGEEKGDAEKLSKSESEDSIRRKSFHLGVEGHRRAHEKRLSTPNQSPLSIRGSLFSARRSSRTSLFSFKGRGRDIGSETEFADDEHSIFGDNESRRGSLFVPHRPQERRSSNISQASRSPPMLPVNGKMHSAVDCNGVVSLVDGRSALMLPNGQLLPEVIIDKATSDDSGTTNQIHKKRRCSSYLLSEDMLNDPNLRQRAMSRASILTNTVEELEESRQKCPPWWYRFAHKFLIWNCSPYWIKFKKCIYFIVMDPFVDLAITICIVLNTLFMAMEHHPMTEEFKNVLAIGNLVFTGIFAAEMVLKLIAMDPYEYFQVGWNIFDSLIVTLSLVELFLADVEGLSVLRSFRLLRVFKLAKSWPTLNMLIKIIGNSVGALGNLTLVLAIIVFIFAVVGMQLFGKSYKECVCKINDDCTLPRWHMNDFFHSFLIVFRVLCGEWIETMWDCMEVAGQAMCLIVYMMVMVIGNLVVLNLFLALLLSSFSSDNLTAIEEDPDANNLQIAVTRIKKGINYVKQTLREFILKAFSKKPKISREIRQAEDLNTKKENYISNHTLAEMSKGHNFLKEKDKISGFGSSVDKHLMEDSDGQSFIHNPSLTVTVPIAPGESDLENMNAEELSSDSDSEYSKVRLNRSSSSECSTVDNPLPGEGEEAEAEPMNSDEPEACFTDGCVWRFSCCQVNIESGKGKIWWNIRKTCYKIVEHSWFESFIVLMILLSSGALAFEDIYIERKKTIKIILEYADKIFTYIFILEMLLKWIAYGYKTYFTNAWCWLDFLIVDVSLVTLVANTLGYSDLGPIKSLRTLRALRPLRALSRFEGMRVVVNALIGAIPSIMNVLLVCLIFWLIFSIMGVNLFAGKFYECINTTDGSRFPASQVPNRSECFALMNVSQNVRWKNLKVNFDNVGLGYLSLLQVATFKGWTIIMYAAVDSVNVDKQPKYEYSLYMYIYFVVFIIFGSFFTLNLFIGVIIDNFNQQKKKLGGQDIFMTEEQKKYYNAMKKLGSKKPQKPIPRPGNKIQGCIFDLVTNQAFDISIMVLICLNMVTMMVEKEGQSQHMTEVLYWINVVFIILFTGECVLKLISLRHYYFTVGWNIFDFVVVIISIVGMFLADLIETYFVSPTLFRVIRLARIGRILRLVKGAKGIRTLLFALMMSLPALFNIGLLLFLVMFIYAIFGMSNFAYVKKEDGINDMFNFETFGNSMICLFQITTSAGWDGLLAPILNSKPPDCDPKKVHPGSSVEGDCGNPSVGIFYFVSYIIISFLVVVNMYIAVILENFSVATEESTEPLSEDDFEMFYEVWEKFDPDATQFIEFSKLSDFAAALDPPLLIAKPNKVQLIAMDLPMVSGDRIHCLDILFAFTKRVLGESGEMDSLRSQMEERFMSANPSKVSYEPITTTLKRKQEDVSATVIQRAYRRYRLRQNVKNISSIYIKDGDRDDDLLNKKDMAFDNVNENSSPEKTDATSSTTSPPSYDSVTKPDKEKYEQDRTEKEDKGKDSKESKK

Usually IC50 stands for the concentration that gives 50% inhibition. `O=c1ccc2cc(S(=O)(=O)Nc3ccon3)ccc2n1[C@@H]1CC[C@@H](c2cccc(F)c2)C1` [Example 1143, 1-((1R,3R)-3-(3-fluorophenyl)cyclopentyl)-N-3-isoxazolyl-2-oxo-1,2-dihydro-6-quinolinesulfonamide, 1-((1R,3S)-3-(3-fluorophenyl)cyclopentyl)-N-3-isoxazolyl-2-oxo-1,2-dihydro-6-quinolinesulfonamide, 1-((1S,3R)-3-(3-fluorophenyl)cyclopentyl)-N-3-isoxazolyl-2-oxo-1,2-dihydro-6-quinolinesulfonamide, 1-((1S,3S)-3-(3-fluorophenyl)cyclopentyl)-N-3-isoxazolyl-2-oxo-1,2-dihydro-6-quinolinesulfonamide] gave an IC50 of 8910 nM.

Regarding `COc1cc(C2CCC(F)(F)CC2)c(F)cc1-n1c(=O)ccc2cc(S(=O)(=O)Nc3ccon3)ccc21` [Example 1102, 1-(4-(4,4-difluorocyclohexyl)-5-fluoro-2-methoxyphenyl)-N-3-isoxazolyl-2-oxo-1,2-dihydro-6-quinolinesulfonamide], 237 nM corresponded to half-maximal inhibition (in-vitro Nav 1.7 PX data) (IC50). Still for that read-out and setting: in the case of `COc1cc(-c2cccc(OC)c2F)c(C)cc1-n1c(=O)ccc2cc(S(=O)(=O)Nc3ncccn3)ccc21` [Example 964, 1-(2′-fluoro-3′,5-dimethoxy-2-methyl-4-biphenylyl)-2-oxo-N-2-pyrimidinyl-1,2-dihydro-6-quinolinesulfonamide] it was 246 nM.

As to `COc1cc(-c2cccc(C)c2)ccc1-n1c(=O)ccc2cc(S(=O)(=O)Nc3ccon3)ccc21` (atropisomer, axis not shown; (P)) [Example 584, (P)-N-3-isoxazolyl-1-(3-methoxy-3′-methyl-4-biphenylyl)-2-oxo-1,2-dihydro-6-quinolinesulfonamide], the IC50 is 13 nM. Molecule `COc1ccc(-c2cnn(C)c2)cc1-n1c(=O)ccc2cc(S(=O)(=O)Nc3ccon3)ccc21` [Example 486, N-3-isoxazolyl-1-(2-methoxy-5-(1-methyl-1H-pyrazol-4-yl)phenyl)-2-oxo-1,2-dihydro-6-quinolinesulfonamide] displayed an IC50 of 27100 nM.

Where the note is “in-vitro Nav 1.7 PX data”, `COc1cc(-c2cnc(OC)c(Cl)c2)ccc1-n1c(=O)ccc2cc(S(=O)(=O)Nc3ccon3)ccc21` [Example 814, 1-(4-(5-chloro-6-methoxy-3-pyridinyl)-2-methoxyphenyl)-N-3-isoxazolyl-2-oxo-1,2-dihydro-6-quinolinesulfonamide] displayed an IC50 of 35 nM. Take `COc1cc(-c2cnc(OC)c(Cl)c2)c(F)cc1-n1c(=O)ccc2cc(S(=O)(=O)Nc3ccon3)ccc21` [Example 740, 1-(4-(5-chloro-6-methoxy-3-pyridinyl)-5-fluoro-2-methoxyphenyl)-N-3-isoxazolyl-2-oxo-1,2-dihydro-6-quinolinesulfonamide]: half-maximal inhibition (in-vitro Nav 1.7 PX data) (IC50) required 9 nM. With `COc1ccc(C)cc1-c1cc(OC)c(-n2c(=O)ccc3cc(S(=O)(=O)Nc4ccon4)ccc32)cc1F` [Example 714, 1-(2-fluoro-2′,5-dimethoxy-5′-methyl-4-biphenylyl)-N-3-isoxazolyl-2-oxo-1,2-dihydro-6-quinolinesulfonamide], the IC50 (in-vitro Nav 1.7 PX data) came to 48 nM. As to `COc1cc(CC2C[C@@H]3CC[C@@H]2C3)c(F)cc1-n1c(=O)ccc2cc(S(=O)(=O)Nc3ccon3)ccc21` (stereo partly shown) [Example 1082], the IC50 (in-vitro Nav 1.7 PX data) was found to be 9 nM. This IC50 is about 5.3-fold lower than that of the molecule before.

Take `COc1cc(-c2cc(OC)c(-n3c(=O)cnc4cc(S(=O)(=O)Nc5ncccn5)ccc43)cc2F)ccc1Cl` [Example 1201, 1-(4′-chloro-2-fluoro-3′,5-dimethoxy-4-biphenylyl)-2-oxo-N-2-pyrimidinyl-1,2-dihydro-6-quinoxalinesulfonamide]: the IC50 amounted to 110 nM.

For the molecule `COc1ccc(C)cc1-c1ccc(-n2c(=O)ccc3cc(S(=O)(=O)Nc4ccon4)ccc32)c(OC)c1` [Example 1036, 1-(2′,3-dimethoxy-5′-methyl-4-biphenylyl)-N-3-isoxazolyl-2-oxo-1,2-dihydro-6-quinolinesulfonamide], where the note is “in-vitro Nav 1.7 PX data (PatchXpress)”, the concentration for half-maximal inhibition (IC50) was 20 nM. The molecule `COc1ccc(-c2cc(OC)c(-n3c(=O)ccc4cc(S(=O)(=O)Nc5ccon5)ccc43)cc2F)cc1F` [Example 705, 1-(2,3′-difluoro-4′,5-dimethoxy-4-biphenylyl)-N-3-isoxazolyl-2-oxo-1,2-dihydro-6-quinolinesulfonamide] gave an IC50 (in-vitro Nav 1.7 PX data) of 41 nM. That is a double-digit nanomolar value.

In the case of `COc1cc(-c2cc(F)cc(Cl)c2)ccc1-n1c(=O)ccc2cc(S(=O)(=O)Nc3cccnn3)ccc21` (atropisomer, axis not shown; (M)) [Example 481, (M)-1-(3′-chloro-5′-fluoro-3-methoxy-4-biphenylyl)-2-oxo-N-3-pyridazinyl-1,2-dihydro-6-quinolinesulfonamide], half-maximal inhibition (in-vitro PatchXpress (PX)) (IC50) required 3070 nM. That is a single-digit micromolar value. `COc1cc(F)cc(-c2cc(OC)c(-n3c(=O)ccc4cc(S(=O)(=O)Nc5ncccn5)ccc43)cc2C)c1` [Example 957, 1-(3′-fluoro-5,5′-dimethoxy-2-methyl-4-biphenylyl)-2-oxo-N-2-pyrimidinyl-1,2-dihydro-6-quinolinesulfonamide]: the IC50 (in-vitro Nav 1.7 PX data) turned out to be 23 nM. Turning to `COc1cc(-c2cccc(OC(C)C)c2)ccc1-n1c(=O)ccc2cc(S(=O)(=O)Nc3ncccn3)ccc21` [Example 828, 1-(3-methoxy-3′-(1-methylethoxy)-4-biphenylyl)-2-oxo-N-2-pyrimidinyl-1,2-dihydro-6-quinolinesulfonamide], where the note is “in-vitro Nav 1.7 PX data”, the IC50 came out at 613 nM. The molecule `COc1nc(OCC2CC2)c(Cl)cc1-n1c(=O)ccc2cc(S(=O)(=O)Nc3ccon3)ccc21` [638/819, 1-(5-chloro-6-(cyclopropylmethoxy)-2-methoxy-3-pyridinyl)-N-3-isoxazolyl-2-oxo-1,2-dihydro-6-quinolinesulfonamide] had an IC50 (in-vitro Nav 1.7 PX data) of 825 nM. The IC50 values of the last two molecules are within 1.5-fold of each other. On the same count and under the same terms, the value for `COc1ccc(-c2ccc(-n3c(=O)ccc4cc(S(=O)(=O)Nc5ccon5)ccc43)c(OC)c2)cc1Cl` [Example 1026, 1-(3′-chloro-3,4′-dimethoxy-4-biphenylyl)-N-3-isoxazolyl-2-oxo-1,2-dihydro-6-quinolinesulfonamide] was 59 nM. Molecule `COc1cc(-c2cccc(F)c2)c(Cl)cc1-n1c(=O)ccc2cc(S(=O)(=O)Nc3ncccn3)ccc21` (atropisomer, axis not shown; (P)) [Example 355, (P)-1-(2-chloro-3′-fluoro-5-methoxy-[1,1′-biphenyl]-4-yl)-2-oxo-N-(pyrimidin-2-yl)-1,2-dihydroquinoline-6-sulfonamide] displayed an IC50 of 31 nM. On to `COc1cccc(-c2nc(OC)c(-n3c(=O)ccc4cc(S(=O)(=O)Nc5ccon5)ccc43)cc2Cl)c1` [Example 1092, 1-(5-chloro-2-methoxy-6-(3-methoxyphenyl)-3-pyridinyl)-N-3-isoxazolyl-2-oxo-1,2-dihydro-6-quinolinesulfonamide], for which, where the note is “in-vitro Nav 1.7 PX data”, the IC50 turned out to be 48 nM. That is a double-digit nanomolar value. Take `COc1nc(OCc2ccc(F)c(F)c2F)c(Cl)cc1-n1c(=O)ccc2cc(S(=O)(=O)Nc3ccon3)ccc21` [Example 1216, 1-(5-chloro-2-methxy-6-((2,3,4-trifluorobenzyl)oxy)-3-pyridinyl)-N-3-isoxazolyl-2-oxo-1,2-dihydro-6-quinolinesulfonamide]: the IC50 came to 119 nM. This lies in the sub-micromolar range. Same read-out and setting: in the case of `COc1cc(Br)c(F)cc1-n1c(=O)ccc2cc(S(=O)(=O)Nc3cc(OCC4(C)CC4)ncn3)ccc21` (atropisomer, axis not shown; (P)) [Example 1189, (P)-1-(4-bromo-5-fluoro-2-methoxyphenyl)-N-(6-((1-methylcyclopropyl)methoxy)-4-pyrimidinyl)-2-oxo-1,2-dihydro-6-quinolinesulfonamide] it was 8360 nM. Still for that read-out and setting: in the case of `COc1cc(-c2cccc(C)c2)ccc1-n1c(=O)ccc2cc(S(=O)(=O)Nc3ccon3)ccc21` (atropisomer, axis not shown; (M)) [Example 583, (M)-N-3-isoxazolyl-1-(3-methoxy-3′-methyl-4-biphenylyl)-2-oxo-1,2-dihydro-6-quinolinesulfonamide] it was more than 10000 nM. Same read-out and setting: the value for `COc1cc(-c2cccc(OC(C)C)c2)ccc1-n1c(=O)ccc2cc(S(=O)(=O)Nc3cc(C)ncn3)ccc21` (atropisomer, axis not shown; (P)) [Example 1205, (P)-1-(3-methoxy-3′-(1-methylethoxy)-4-biphenylyl)-N-(6-methyl-4-pyrimidinyl)-2-oxo-1,2-dihydro-6-quinolinesulfonamide] was 290 nM.

On to `COc1cc(-c2cnc(OC)c(Cl)c2)c(F)cc1-n1c(=O)ccc2cc(S(=O)(=O)Nc3cccc(F)n3)ccc21` (atropisomer, axis not shown; (P)) [Example 1162, (P)-1-(4-(5-chloro-6-methoxy-3-pyridinyl)-5-fluoro-2-methoxyphenyl)-N-(6-fluoro-2-pyridinyl)-2-oxo-1,2-dihydro-6-quinolinesulfonamide], for which half-maximal inhibition (in-vitro Nav 1.7 PX data, Table 4) (IC50) was put at 12 nM. In turn, `COc1cc(-c2cc(F)cc(F)c2F)c(F)cc1-n1c(=O)ccc2cc(S(=O)(=O)Nc3ccon3)ccc21` (atropisomer, axis not shown; (P)) [Example 514, (P)—N-3-isoxazolyl-2-oxo-1-(2,2′,3′,5′-tetrafluoro-5-methoxy-4-biphenylyl)-1,2-dihydro-6-quinolinesulfonamide] had a concentration for half-maximal inhibition (IC50) (in-vitro PatchXpress (PX)) of 18 nM.

For the molecule `COc1cc(-c2ccc(F)c(F)c2)c(F)cc1-n1c(=O)ccc2cc(S(=O)(=O)Nc3ccnc(C)n3)ccc21` [Example 939, N-(2-methyl-4-pyrimidinyl)-2-oxo-1-(2,3′,4′-trifluoro-5-methoxy-4-biphenylyl)-1,2-dihydro-6-quinolinesulfonamide], the IC50 (in-vitro Nav 1.7 PX data) amounted to 41 nM.

For `COc1cc(-c2cc(C)cc(Cl)c2)ccc1-n1c(=O)ccc2cc(S(=O)(=O)Nc3ccon3)ccc21` (atropisomer, axis not shown; (M)) [Example 586, (M)-1-(3′-chloro-3-methoxy-5′-methyl-4-biphenylyl)-N-3-isoxazolyl-2-oxo-1,2-dihydro-6-quinolinesulfonamide], the IC50 is more than 1000 nM. Where the note is “in-vitro Nav 1.7 PX data”, `COc1cc(-c2ccncc2Cl)c(F)cc1-n1c(=O)ccc2cc(S(=O)(=O)Nc3ccon3)ccc21` [Example 748, 1-(4-(3-chloro-4-pyridinyl)-5-fluoro-2-methoxyphenyl)-N-3-isoxazolyl-2-oxo-1,2-dihydro-6-quinolinesulfonamide] yielded an IC50 of 573 nM. This lies in the sub-micromolar range.
